Test results from patent EP0973746B1, “SUBSTITUTED 3-CYANO QUINOLINES” (Wyeth Holdings Corporation, priority 1997, dated 1998).
pIC50: −log10 of the molar value. In brackets after ≈: the same amount, converted by molar mass. Like-named read-outs stand apart in the source and are kept apart here.

Legend:
HTB161 = assay: Inhibition of cancer cell growth as measured by cell number, HTB161; assay type: cell-based; conditions: Homo sapiens, 48 h, read-out: IC50 HTB161
A27805 = assay: Inhibition of cancer cell growth as measured by cell number, A27805; assay type: cell-based; conditions: Homo sapiens, 48 h, read-out: IC50 A27805
A2780DDP = assay: Inhibition of cancer cell growth as measured by cell number, A2780DDP; assay type: cell-based; conditions: Homo sapiens, 48 h, read-out: IC50 A2780DDP
MIP = assay: Inhibition of cancer cell growth as measured by cell number, MIP; assay type: cell-based; conditions: Homo sapiens; cell number, Sulforhodamine B, 48 hours exposure; Table 4; read-out: IC50 MIP
SW620 = assay: Inhibition of cancer cell growth as measured by cell number, SW620; assay type: cell-based, human; conditions: Homo sapiens, SW-620, 48 h;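 also: SW620 was included as a cell line with little or no EGFR or HER2/neu expression, in contrast to receptor-overexpressing lines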
From the text: (§1) The cell lines were chosen since they overexpressed epidermal growth factor receptor (EGFR) (i.e. A431) or HER2/neu (SKBR3), or had little to no expression of the these receptors (SW620, LOX, MCF7).

COLO205 = assay: Inhibition of cancer cell growth as measured by cell number, COLO205; assay type: cell-based; conditions: Homo sapiens, COLO 205, 48 h, read-out: IC50 COLO205
CX1 = assay: Inhibition of cancer cell growth as measured by cell number, CX1; assay type: cell-based; conditions: Homo sapiens, CX-1, 48 h, read-out: IC50 CX1
CACO2 = assay: Inhibition of cancer cell growth as measured by cell number, CACO2; assay type: cell-based; conditions: Homo sapiens, Caco-2, 48 h, read-out: IC50 CACO2
HCT15 = assay: Inhibition of cancer cell growth as measured by cell number, HCT15; assay type: cell-based; conditions: Homo sapiens, HCT-15, 48 h, read-out: IC50 HCT15
LS174T = assay: Inhibition of cancer cell growth as measured by cell number, LS174T; assay type: cell-based; conditions: Homo sapiens, 48 h, read-out: IC50 LS174T
SW948 = assay: Inhibition of cancer cell growth as measured by cell number, SW948; assay type: cell-based; conditions: Homo sapiens, SW948, 48 h, read-out: IC50 SW948
CCL228 = assay: Inhibition of cancer cell growth as measured by cell number, CCL228; assay type: cell-based; conditions: Homo sapiens, 48 h, read-out: IC50 CCL228
MCF7 = assay: Inhibition of cancer cell growth as measured by cell number, MCF7; assay type: cell-based, human; conditions: Homo sapiens, MCF7, 48 h, read-out: IC50 MCF7, cell number, Sulforhodamine B, 48 hours exposure; Table 5;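 also: MCF7 was included as a line with little or no EGFR or HER2/neu expression, in contrast to the receptor-overexpressing lines of the panel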
From the text: as §1

B7474 = assay: Inhibition of cancer cell growth as measured by cell number, B7474; assay type: cell-based; conditions: Homo sapiens, 48 h, read-out: IC50 B7474
T47D = assay: Inhibition of cancer cell growth as measured by cell number, T47D; assay type: cell-based; conditions: Homo sapiens, 48 h, read-out: IC50 T47D
LX1 = assay: Inhibition of cancer cell growth as measured by cell number, LX1; assay type: cell-based; conditions: Homo sapiens, LX-1, 48 h, read-out: IC50 LX1
A549 = assay: Inhibition of cancer cell growth as measured by cell number, A549; assay type: cell-based; conditions: Homo sapiens, A549, 48 h, read-out: IC50 A549
LOX = assay: Inhibition of cancer cell growth as measured by cell number, LOX; assay type: cell-based, human; conditions: Homo sapiens, LOX, 48 h, read-out: IC50 LOX, cell number, Sulforhodamine B, 48 hours exposure; Table 6;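 also: LOX cells served as a line with low or absent EGFR and HER2/neu expression, in contrast to receptor-overexpressing lines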
From the text: as §1

A431 = assay: Inhibition of cancer cell growth as measured by cell number, A431; assay type: cell-based, human; conditions: Homo sapiens, A-431, 48 h, read-out: IC50 A431, cell number, Sulforhodamine B, 48 hours exposure; Table 6;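 also: human A431 line, picked because it overexpresses epidermal growth factor receptor (EGFR)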
From the text: as §1

NEC = assay: Inhibition of cancer cell growth as measured by cell number, NEC; assay type: cell-based; conditions: Homo sapiens, 48 h, read-out: IC50 NEC
DU145 = assay: Inhibition of cancer cell growth as measured by cell number, DU145; assay type: cell-based; conditions: Homo sapiens, DU-145, 48 h, read-out: IC50 DU145
PC3 = assay: Inhibition of cancer cell growth as measured by cell number, PC3; assay type: cell-based; conditions: Homo sapiens, PC-3, 48 h, read-out: IC50 PC3
LNCAP = assay: Inhibition of cancer cell growth as measured by cell number, LNCAP; assay type: cell-based; conditions: Homo sapiens, 48 h, read-out: IC50 LNCAP
HL60 = assay: Inhibition of cancer cell growth as measured by cell number, HL60; assay type: cell-based; conditions: Homo sapiens, HL-60, 48 h, read-out: IC50 HL60
CCRF-CFM = assay: Inhibition of cancer cell growth as measured by cell number, CCRF-CFM; assay type: cell-based; conditions: Homo sapiens, 48 h, read-out: IC50 CCRF-CFM
SKBR3 = assay: Inhibition of cancer cell growth as measured by cell number, SKBR3; assay type: cell-based, human; conditions: Homo sapiens, SK-BR-3, 48 h, read-out: IC50 SKBR3, cell number, Sulforhodamine B, 48 hours exposure; Table 7;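 also: SK-BR-3 cells were selected as a line overexpressing HER2/neu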
From the text: as §1

[1] = molecular target: recombinant human MEK 1 (MAPKK) and recombinant human ERK2 (MAPK); assay: Mitogen Activated Protein Kinase (MAPK) assay, two component coupled MEK 1 / ERK2; assay type: biochemical; conditions: separate entries for the same compound = evaluated more than one time;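 also: MEK 1-activated ERK2 phosphorylates MBP or Myc peptide with 33P-ATP, filter capture and scintillation counting, inhibitor preincubated with ERK2 30 min at 0 °C, inhibition relative to uninhibited control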
[2] = molecular target: T1, Kinase insert Domain containing Receptor (KDR: the catalytic domain of the VEGF receptor) (Homo sapiens, UniProt P35968); assay: Inhibition of Kinase insert Domain containing Receptor (KDR); assay type: biochemical; conditions: pH 7.2; radioactive format; read-out: KDR IC50 (converted);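 also: KDR phosphorylating a Glu:Tyr 4:1 copolymer with P32- or P33-labelled ATP, Mg++ and vanadate, read as acid-insoluble radiolabel, compared with compound-free reaction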
T1 construct: KDR: the catalytic domain of the VEGF receptor
T1 sequence (P35968 834-1162 limits assumed): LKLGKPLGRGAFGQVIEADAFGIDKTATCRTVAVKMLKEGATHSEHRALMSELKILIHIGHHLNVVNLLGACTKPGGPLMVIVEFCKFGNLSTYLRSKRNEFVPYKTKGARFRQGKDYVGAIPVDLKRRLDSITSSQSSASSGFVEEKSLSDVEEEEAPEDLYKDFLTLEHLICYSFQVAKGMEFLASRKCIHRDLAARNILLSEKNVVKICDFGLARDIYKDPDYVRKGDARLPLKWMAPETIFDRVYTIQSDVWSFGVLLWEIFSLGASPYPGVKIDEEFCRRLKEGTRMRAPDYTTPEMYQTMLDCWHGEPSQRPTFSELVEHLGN

[3] = molecular target: Epithelial Cell Kinase (ECK) (Homo sapiens, UniProt P29317); assay: biochemical
Chain of Epithelial Cell Kinase (ECK) (P29317 24-976, species assumed): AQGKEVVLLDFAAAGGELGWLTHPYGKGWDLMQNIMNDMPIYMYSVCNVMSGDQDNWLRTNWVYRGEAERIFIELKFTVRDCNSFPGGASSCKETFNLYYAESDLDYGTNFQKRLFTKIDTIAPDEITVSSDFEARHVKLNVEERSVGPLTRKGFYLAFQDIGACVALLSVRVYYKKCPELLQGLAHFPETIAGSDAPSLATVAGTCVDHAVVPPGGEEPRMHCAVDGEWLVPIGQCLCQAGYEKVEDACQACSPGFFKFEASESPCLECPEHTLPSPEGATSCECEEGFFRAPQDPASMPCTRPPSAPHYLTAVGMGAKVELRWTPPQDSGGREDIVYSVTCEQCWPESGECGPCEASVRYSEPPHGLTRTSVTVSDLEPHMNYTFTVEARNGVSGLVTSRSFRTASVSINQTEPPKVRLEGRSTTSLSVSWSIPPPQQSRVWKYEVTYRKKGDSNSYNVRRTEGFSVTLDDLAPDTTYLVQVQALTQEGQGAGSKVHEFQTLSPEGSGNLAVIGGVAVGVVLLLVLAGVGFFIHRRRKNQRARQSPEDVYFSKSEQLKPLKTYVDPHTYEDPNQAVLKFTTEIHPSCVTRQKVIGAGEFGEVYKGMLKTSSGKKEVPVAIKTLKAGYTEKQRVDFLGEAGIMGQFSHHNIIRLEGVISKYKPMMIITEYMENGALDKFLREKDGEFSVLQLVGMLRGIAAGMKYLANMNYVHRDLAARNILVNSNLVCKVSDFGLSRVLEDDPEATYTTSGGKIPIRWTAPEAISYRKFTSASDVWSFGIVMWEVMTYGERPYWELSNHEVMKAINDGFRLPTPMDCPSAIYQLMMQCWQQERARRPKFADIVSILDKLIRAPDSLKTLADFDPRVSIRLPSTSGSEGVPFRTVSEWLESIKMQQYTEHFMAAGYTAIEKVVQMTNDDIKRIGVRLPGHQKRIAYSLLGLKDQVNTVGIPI
Method: In this standard pharmacological test procedure, a biotinylated peptide substrate is first immobilized on neutravidin-coated microtiter plates. The test drug, the Epithelial Cell Kinase (ECK), Mg^++, sodium vanadate (a protein tyrosine phosphatase inhibitor), and an appropriate buffer to maintain pH (7.2) are then added to the immobilized substrate-containing microtiter wells. ATP is then added to initiate phosphorylation. After incubation, the assay plates are washed with a suitable buffer leaving behind phosphorylated peptide which is exposed to horse radish peroxidase (HRP)-conjugated anti-phosphotyrosine monoclonal antibody. The antibody-treated plates are washed again and the HRP activity in individual wells is quantified as a reflection of degree of substrate phosphorylation.

[4] = read-out: IC50 SW620, cell number, Sulforhodamine B, 48 hours exposure, Table 4

Row | Compound | IC50 (HTB161) | IC50 (A27805) | IC50 (A2780DDP) | IC50 (MIP) | IC50 (SW620; [4]) | IC50 (COLO205) | IC50 (CX1) | IC50 (SW948) | IC50 (CCL228) | IC50 (MCF7) | IC50 (T47D) | IC50 (LX1) | IC50 (A549) | IC50 (LOX) | IC50 (NEC) | IC50 (PC3) | IC50 (LNCAP) | IC50 (CCRF-CFM) | IC50 (SKBR3) | pIC50 [1] | also measured
1 | COc1cc2ncc(C#N)c(Nc3cccc(Br)c3)c2cc1[N+](=O)[O-] [Example 6] | 1.66 µg/mL (≈ 4.15 µM) | 2.49 µg/mL (≈ 6.23 µM) | 3.22 µg/mL (≈ 8.06 µM) | 0.95 µg/mL (≈ 2.38 µM) | 4.71 µg/mL (≈ 11.8 µM) | 5.51 µg/mL (≈ 13.8 µM) | 3.02 µg/mL (≈ 7.58 µM) | 5.2 µg/mL (≈ 13 µM) | 2.35 µg/mL (≈ 5.88 µM) | 4.27 µg/mL (≈ 10.7 µM) | 3.26 µg/mL (≈ 8.18 µM) | 5.55 µg/mL (≈ 13.9 µM) | 4.45 µg/mL (≈ 11.1 µM) | 0.813 µg/mL (≈ 2.04 µM) | 4.17 µg/mL (≈ 10.4 µM) | 4.69 µg/mL (≈ 11.7 µM) | 4.19 µg/mL (≈ 10.5 µM) | 2.57 µg/mL (≈ 6.44 µM) | 4.2 µg/mL (≈ 10.5 µM) | < 4.00 | IC50 (CACO2): 0.808 µg/mL (≈ 2.02 µM); IC50 (HCT15): 1.75 µg/mL (≈ 4.38 µM); IC50 (LS174T): 2.67 µg/mL (≈ 6.7 µM); IC50 (B7474): 3.76 µg/mL (≈ 9.41 µM); IC50 (A431): 0.845 µg/mL (≈ 2.12 µM); IC50 (DU145): 1.03 µg/mL (≈ 2.59 µM); IC50 (HL60): 0.947 µg/mL (≈ 2.37 µM)
2 | C=CC(=O)Nc1cc2c(Nc3cccc(Br)c3)c(C#N)cnc2cc1OC [Example 9, N-[4-[(3-Bromophenyl)amino]-3-cyano-7-methoxy-6-quinolinyl]-2-propenamide] | 0.341 µg/mL (≈ 0.806 µM) | 0.542 µg/mL (≈ 1.28 µM) | 0.513 µg/mL (≈ 1.21 µM) | 0.731 µg/mL (≈ 1.73 µM) | 1.94 µg/mL (≈ 4.58 µM) | 2.56 µg/mL (≈ 6.06 µM) | 0.91 µg/mL (≈ 2.15 µM) | 3.3 µg/mL (≈ 7.8 µM) | 0.707 µg/mL (≈ 1.67 µM) | 3.25 µg/mL (≈ 7.69 µM) | 0.838 µg/mL (≈ 1.98 µM) | 0.0672 µg/mL (≈ 0.159 µM) | 2.92 µg/mL (≈ 6.89 µM) | 0.438 µg/mL (≈ 1.04 µM) | 0.952 µg/mL (≈ 2.25 µM) | 1.66 µg/mL (≈ 3.92 µM) | 0.661 µg/mL (≈ 1.56 µM) | 0.551 µg/mL (≈ 1.3 µM) | 0.862 µg/mL (≈ 2.04 µM) | < 4.00 | IC50 (CACO2): 0.341 µg/mL (≈ 0.805 µM); IC50 (HCT15): 0.984 µg/mL (≈ 2.33 µM); IC50 (LS174T): 0.712 µg/mL (≈ 1.68 µM); IC50 (B7474): 0.443 µg/mL (≈ 1.05 µM); IC50 (A431): 0.433 µg/mL (≈ 1.02 µM); IC50 (DU145): 0.388 µg/mL (≈ 0.916 µM); IC50 (HL60): 0.758 µg/mL (≈ 1.79 µM); IC50 [2]: > 70.9 µM
3 | N#Cc1cnc2ccc([N+](=O)[O-])cc2c1Nc1cccc(C(F)(F)F)c1 [Example 23, 6-Nitro-4[(3-trifluoromethylphenyl)amino]-3-quinolinecarbonitrile] | – | – | – | – | – | > 100 µg/mL | – | > 100 µg/mL | – | – | – | – | – | – | – | – | – | – | – | < 4.00 | IC50 (SW620; read-out: IC50 SW620): > 100 µg/mL; pIC50 [3]: 4.55
4 | COc1cc2ncc(C#N)c(Nc3cccc(CO)c3)c2cc1OC [Example 48, 4-[(3-(hydroxymethyl)phenyl)amino]-6,7-dimethoxy-3-quinolinecarbonitrile] | – | – | – | – | > 100 µg/mL | – | 59.2 µg/mL (≈ 177 µM) | > 100 µg/mL | > 100 µg/mL | 79.3 µg/mL (≈ 236 µM) | > 100 µg/mL | > 100 µg/mL | > 100 µg/mL | 47 µg/mL (≈ 140 µM) | > 100 µg/mL | > 100 µg/mL | 40.6 µg/mL (≈ 121 µM) | > 100 µg/mL | 64.5 µg/mL (≈ 192 µM) | – | –
5 | COc1cc2ncc(C#N)c(Oc3cccc(Br)c3)c2cc1OC [Example 49, 4-(3-Bromophenoxy)-6,7-dimethoxy-3-quinolinecarbonitrile] | 70.6 µg/mL (≈ 183 µM) | 34.8 µg/mL (≈ 90.2 µM) | 51.8 µg/mL (≈ 135 µM) | > 100 µg/mL | > 100 µg/mL | 88 µg/mL (≈ 228 µM) | 98.4 µg/mL (≈ 256 µM) | > 100 µg/mL | 99 µg/mL (≈ 257 µM) | 57.5 µg/mL (≈ 149 µM) | 71.2 µg/mL (≈ 185 µM) | > 100 µg/mL | > 100 µg/mL | 55.1 µg/mL (≈ 143 µM) | 85.3 µg/mL (≈ 221 µM) | > 100 µg/mL | 52.4 µg/mL (≈ 136 µM) | > 100 µg/mL | 74.6 µg/mL (≈ 194 µM) | < 4.00 | IC50 (CACO2): 42.1 µg/mL (≈ 109 µM); IC50 (HCT15): 97.4 µg/mL (≈ 253 µM); IC50 (LS174T): > 100 µg/mL; IC50 (B7474): 87.1 µg/mL (≈ 226 µM); IC50 (A431): 100 µg/mL (≈ 260 µM); IC50 (DU145): 79.8 µg/mL (≈ 207 µM); IC50 (HL60): 48.4 µg/mL (≈ 126 µM); IC50 [2]: > 77.9 µM
